Here are results for 18 compounds from ChEMBL document CHEMBL3301464, “MMV Malaria Box anti-babesial screening”.

Assay [1] is described as follows: (§1) MMV: Anti-babesial activity assay. Parasite pRBCs at 1% parasitemia were cultivated in 100 ul with 96-well plates at 2.5% and 5% hematocrits. The parasites were cultivated in triplicate for 4 days without replacement of the medium for each concentration of the compound. The assay is classed as functional, Babesia equi.
A short description of assay [2]: as §1. The assay is classed as functional, Babesia caballi.
The nature of assay [3]: as §1. Type of assay: functional, Babesia bigemina.
Assay [4] in a line: as §1. The assay is classed as functional, Babesia bovis.

The term IC50 denotes the concentration needed to halve the response being measured. `CCOc1c(Cl)cc(CNC(C)C(O)c2ccccc2)cc1OC` (configuration not stated): the IC50 in assay [1] was 6.69 µM; in assay [2], 12 µM; in assay [3], 7.31 µM; in assay [4], 1.89 µM.
On the same counts, the results for `CCCCCC(=O)N1c2ccccc2N=C2CC(c3ccc(OC)c(OC)c3)CC(O)=C2C1c1ccc(C(F)(F)F)cc1` (configuration not stated) are 21.9 µM, 14.2 µM, 16.2 µM and over 25 µM.
As for `CCOC(=O)C1=C(C)N=c2sc(=Cc3cc(Cl)ccc3O)c(=O)n2C1c1ccc(OC)cc1` (configuration not stated), the IC50 in assay [1] worked out at 14.6 µM; in assay [2] it was 15.9 µM; in assay [3], 14.1 µM; in assay [4] it was 18.1 µM.
For `CN(C)CCNc1cc(-c2ccccc2)nc2ccccc12`, the half-inhibitory concentration (IC50) in assay [1] turned out to be 0.59 µM; in assay [2], 0.1 µM; in assay [3], 3.03 µM; in assay [4], 4.65 µM.
The matching figures for `CCC(=O)Nc1nnc(Cc2ccc(OC)c(OC)c2)s1`: 12.4 µM, 4.65 µM, 10 µM and 1.29 µM.
The matching figures for `CCOc1ccc(CCNC(=O)c2cccs2)cc1OCC`: 13.9 µM, 15.3 µM, over 25 µM and 25 µM.
For the compound `CSC1=NC(=Nc2c(C)cccc2C)C2(CCC(C(C)(C)C)CC2)N1c1ccc(Cl)cc1` (configuration not stated), the 50% inhibitory concentration (IC50) in assay [1] is 11.5 µM; in assay [2], 15 µM; in assay [3] it was 17.1 µM; in assay [4], 18.4 µM.
For the compound `CN1c2ccccc2N(C)C1c1ccc2c(c1)OCO2`, the IC50 was 10.1 µM in assay [1], 0.36 µM in assay [2], 0.1 µM in assay [3] and 4.93 µM in assay [4].
The matching figures for `O=C1c2ccccc2C2=Nc3ccccc3SC(c3cccc(F)c3)C12` (configuration not stated): 14.8 µM, 0.13 µM, 5.3 µM and 0.31 µM.
Take `COc1ccc(C(=O)Nc2ccc3nc(N4CCCCC4)cc(C)c3c2)cc1OC`: the IC50 in assay [1] was found to be 6.99 µM; in assay [2], 0.51 µM; in assay [3] it was 0.46 µM; in assay [4], 14.3 µM.
The matching figures for `COc1ccc(/C=C2/SC(=Nc3ccccc3)NC2=O)cc1`: 0.1 µM, 13.3 µM, 1 µM and 4.91 µM.
On the same counts, the results for `O=C(Nc1ccc(N2CCN(Cc3ccccc3)CC2)cc1)c1cccs1` are 3.32 µM, 0.08 µM, 8.47 µM and 1.87 µM.
On the same counts, the results for `Cc1ccc(Nc2nc(N)c3ccccc3n2)cc1Cl` are 16.5 µM, 10 µM, 9.87 µM and 6.31 µM.
With `CCn1nc(-c2ccc(C(=O)OC)cc2)nc2c(=O)n(C)c(=O)nc1-2`, the IC50 in assay [1] was determined as 5.06 µM; in assay [2], 0.09 µM; in assay [3], 7.89 µM; in assay [4], 12.8 µM.
The matching figures for `O=C(NCC1Cc2cccc(-c3ccncc3)c2O1)c1csc2c1CCCC2` (configuration not stated): 3.7 µM, 15.3 µM, 1 µM and 7.18 µM.
As to `Oc1ccc(-c2nc(-c3ccc4oc5ccc(-c6[nH]c(-c7ccc(O)cc7)nc6-c6ccccc6)cc5c4c3)c(-c3ccccc3)[nH]2)cc1`, the IC50 turned out to be 0.1 µM in assay [1], 10 µM in assay [2], 1.39 µM in assay [3] and 0.059 µM in assay [4].
On the same counts, the results for `Fc1ccc2[nH]c3c(NCCCN4CCOCC4)ncnc3c2c1` are 2.88 µM, 14.7 µM, 17.1 µM and 19.7 µM.
On to `CCN(CC)CCNc1ncnc2c1[nH]c1ccc(Br)cc12`, for which the 50% inhibitory concentration (IC50) in assay [1] stood at 4.6 µM; in assay [2] it was 4.19 µM; in assay [3] it was 3.03 µM; in assay [4] it was 1 µM.
